What was measured:
healthy subjects = assay: Single ascending oral dose study in healthy volunteers: safety (AEs, ECG, hs-troponin I); assay type: in vivo, human
Procedure: PK and PD data were collected as described herein. […] Changes from Baseline at each postbaseline timepoint were assessed.
A 12-lead electrocardiogram (ECG) was obtained after the subjects had rested in a supine position for at least 10 minutes. […] Digital 12-lead ECG evaluations was performed after 10 minutes of rest at Screening, preclose on Day 1 (within 2 hours of dosing), and at various predetermined time points. Each time an ECG was completed, a 10-second paper ECG rhythm strip would also be obtained and maintained in the subject's source documentation.
The ECGs were transmitted to the core ECG laboratory who read the recordings in a blinded manner. An automated methodology was utilized with manual over-reading by a cardiologist. The following intervals were measured: RR, PR, QRS, and QT. Heart rate (HR) was calculated as 60/(RR×1000) (with RR expressed in msec) and rounded to the nearest integer.
Corrected QT interval (QTc) was calculated using the manually over-read QT values per the standard procedures of the central ECG laboratory. Each individual ECG QT value was corrected for HR. The measured QT data were corrected for HR using the Fridericia correction QTcF and the Bazzett method (QTcB) as per the following formulae/method (with QT, RR and QTc expressed in msec): […]
Any abnormal findings judged by the investigator to be clinically important were recorded as adverse events (AEs). AEs were mapped to system organ classes (SOCs) and preferred terms (PTs) using the Medical Dictionary for Regulatory Activities (MedDRA). AEs were monitored during the study and the data analyzed with respect to overall incidence, severity, and potential relationship to study medication. The blinded AEs were presented to the SRC for review after each cohort to aid in their decision on the dose of the subsequent cohort or if the study should be terminated. […] No ECG changes or symptoms were noted.
For the final analysis, the AEs were grouped by treatment group with all of the subjects who received placebo pooled as 1 group. AEs with onset on or after the first dose of study medication, or with an onset before the first dose of study medication that increased in severity on or after the first dose of study medication. Treatment-emergent AEs (defined as AEs starting […]) were summarized for the Safety Analysis Population by MedDRA SOC and PT, and by severity and relationship to treatment. Severe and life-threatening AEs, SAEs, and AEs leading to study withdrawal, if any, were presented in data listings.
Serum samples were drawn for hs-troponin I. Analyses were performed using the Abbott Architect STAT High Sensitivity Troponin I assay.

cardiac actin and myosin = cardiac actin and myosin (Homo sapiens, UniProt P12883); assay: Crossbridge formation (phosphate release) and detachment (ADP release) between cardiac actin and myosin; assay type: biochemical
Source text: or a pharmaceutically acceptable salt thereof. […] Crossbridge formation and detachment are critical steps in each cycle of cardiac contraction. Compound I reversibly binds to myosin, increasing the number of myosin/actin crossbridges available to participate in the strongly bound state of the chemomechanical cycle and thereby increasing contraction.

[1] = system: patients with stable HFrEF; assay: HFrEF study Part 1 (SAD Cohorts 1 and 2): safety (TEAEs, troponin, ECG, Holter); assay type: in vivo, human
Procedure: Safety and efficacy assessments were conducted by measuring patients' vital signs and laboratory parameters; performing TTE to measure, e.g., systolic ejection time; performing electrocardiograms (e.g., 12-lead ECG), real-time ECG telemetry (e.g., at least 3-lead), and Holter ECG; and measuring levels of troponin (e.g., troponin I and/or troponin T) and […].
The following safety laboratory parameters were measured: (1) hematology parameters (CBC, including differential count, and platelet count); (2) serum chemistry parameters (e.g., sodium, potassium, chloride, bicarbonate, calcium, magnesium, urea, creatinine, ALP, ALT, AST, total bilirubin, glucose, and CPK); and (3) urinalysis parameters (e.g., pH, protein, glucose, leukocyte esterase, and blood).
Abnormal and/or rising troponin values (as per investigator's judgment and taking into account potential baseline troponin elevation frequently observed in heart failure) led to the patient being clinically evaluated for possible myocardial ischemia. […] The entire clinical context (e.g., signs, symptoms, new ECG changes, new troponin, and CK-MB abnormalities) was evaluated and correlated with any other relevant clinical findings, patient's medical history, and laboratory data to determine the clinical significance of the findings. Troponin results performed on Day 2 of Part 1 (SAD) and Day 10 of Part 2 (MAD) at a local lab were reviewed prior to the patient being discharged the next day.

Chain of cardiac actin and myosin (P12883 whole entry): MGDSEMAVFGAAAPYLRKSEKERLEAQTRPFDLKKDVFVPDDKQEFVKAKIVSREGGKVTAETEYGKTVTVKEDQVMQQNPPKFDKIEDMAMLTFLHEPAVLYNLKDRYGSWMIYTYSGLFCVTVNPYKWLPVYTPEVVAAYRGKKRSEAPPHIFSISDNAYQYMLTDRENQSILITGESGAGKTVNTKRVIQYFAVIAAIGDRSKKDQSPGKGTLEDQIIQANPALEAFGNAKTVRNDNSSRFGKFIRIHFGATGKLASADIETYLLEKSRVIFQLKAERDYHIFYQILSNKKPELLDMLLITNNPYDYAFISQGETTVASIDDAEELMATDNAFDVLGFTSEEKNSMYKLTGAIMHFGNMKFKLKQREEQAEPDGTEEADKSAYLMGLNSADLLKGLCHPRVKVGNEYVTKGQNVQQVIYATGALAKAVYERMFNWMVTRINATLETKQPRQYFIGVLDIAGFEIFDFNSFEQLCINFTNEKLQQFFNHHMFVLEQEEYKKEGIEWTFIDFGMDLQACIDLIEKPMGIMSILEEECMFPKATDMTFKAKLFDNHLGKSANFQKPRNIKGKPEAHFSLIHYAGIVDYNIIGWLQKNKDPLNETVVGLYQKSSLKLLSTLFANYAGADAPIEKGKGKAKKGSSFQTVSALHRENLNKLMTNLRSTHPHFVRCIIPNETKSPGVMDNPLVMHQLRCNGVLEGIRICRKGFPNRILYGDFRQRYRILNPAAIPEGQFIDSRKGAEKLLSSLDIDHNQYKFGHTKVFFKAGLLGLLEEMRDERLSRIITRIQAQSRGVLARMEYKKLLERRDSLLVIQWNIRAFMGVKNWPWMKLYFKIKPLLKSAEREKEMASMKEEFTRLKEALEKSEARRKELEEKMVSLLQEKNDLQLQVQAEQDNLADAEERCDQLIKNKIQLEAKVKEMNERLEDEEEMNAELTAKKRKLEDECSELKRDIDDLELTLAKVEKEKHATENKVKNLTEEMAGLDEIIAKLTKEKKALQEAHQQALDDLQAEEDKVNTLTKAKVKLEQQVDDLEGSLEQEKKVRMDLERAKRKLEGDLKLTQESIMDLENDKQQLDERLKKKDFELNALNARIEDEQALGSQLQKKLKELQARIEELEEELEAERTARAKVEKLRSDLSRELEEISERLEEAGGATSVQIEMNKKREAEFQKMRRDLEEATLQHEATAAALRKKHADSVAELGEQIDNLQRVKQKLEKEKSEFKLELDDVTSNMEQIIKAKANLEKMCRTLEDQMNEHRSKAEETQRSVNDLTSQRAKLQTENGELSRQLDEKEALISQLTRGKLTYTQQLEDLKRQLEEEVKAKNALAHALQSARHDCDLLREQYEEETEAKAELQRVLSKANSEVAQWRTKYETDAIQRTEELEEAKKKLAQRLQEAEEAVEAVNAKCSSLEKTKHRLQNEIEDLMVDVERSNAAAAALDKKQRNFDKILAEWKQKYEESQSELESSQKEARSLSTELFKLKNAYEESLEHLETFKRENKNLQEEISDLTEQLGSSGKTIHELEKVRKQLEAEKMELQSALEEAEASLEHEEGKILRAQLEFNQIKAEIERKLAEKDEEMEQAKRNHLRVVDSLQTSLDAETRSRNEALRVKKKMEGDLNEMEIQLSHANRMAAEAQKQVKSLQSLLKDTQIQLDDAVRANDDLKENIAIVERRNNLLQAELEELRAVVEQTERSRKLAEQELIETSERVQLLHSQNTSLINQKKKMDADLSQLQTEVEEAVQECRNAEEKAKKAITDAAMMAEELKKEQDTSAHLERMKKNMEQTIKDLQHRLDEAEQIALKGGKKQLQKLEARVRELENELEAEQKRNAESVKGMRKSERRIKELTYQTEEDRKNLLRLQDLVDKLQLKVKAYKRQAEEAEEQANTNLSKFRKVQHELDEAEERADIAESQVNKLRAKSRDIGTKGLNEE
Chain of cardiac actin and myosin (P08590 whole entry partner): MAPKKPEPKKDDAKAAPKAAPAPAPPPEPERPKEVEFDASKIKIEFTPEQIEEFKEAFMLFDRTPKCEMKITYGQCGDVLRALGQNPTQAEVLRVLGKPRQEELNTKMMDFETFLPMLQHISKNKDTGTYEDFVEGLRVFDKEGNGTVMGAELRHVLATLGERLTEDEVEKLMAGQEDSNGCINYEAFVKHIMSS

For Cn1cc(S(=O)(=O)[C@@](C)(F)C2CCN(C(=O)Nc3ccon3)CC2)c(C(F)F)n1 [Compound I, (R)-4-(1-((3-(difluoromethyl)-1-methyl-1H-pyrazol-4-yl)sulfonyl)-1-fluoroethyl)-N-(isoxazol-3-yl)piperidine-1-carboxamide], the “AEs considered related to treatment” value (healthy subjects; 50 mg dose group (50.0%)) was 3 subjects, the “serious AE” value (healthy subjects; 100 mg dose group) was “short duration of complete AV block” and the “AEs considered related to treatment” value (healthy subjects; 350 mg dose group (50.0%)) was 3 subjects. The hs-troponin I concentration in one subject (healthy subjects; 525 mg group, 6 hours postdose, upper limit of normal 15 ng/L) was 16 ng/L, the “ECG or ECG intervals including PR interval” value (healthy subjects; 3-525 mg) was “no significant changes” and the “vital sign or safety laboratory parameters” value (healthy subjects; 3-525 mg) was “no clinically significant changes”. For the same compound, the tolerability (healthy subjects; single doses up to 525 mg) was “well-tolerated”, the “hs-troponin I, mild increase in one subject” value (healthy subjects; upper range of normal 15 ng/L) was 16 ng/L and the “crossbridge detachment (measured as ADP release)” value (cardiac actin and myosin) was “does not inhibit crossbridge detachment”. For the same compound, the “crossbridge formation (measured as phosphate release)” value (cardiac actin and myosin; between cardiac actin and myosin) was “increases crossbridge formation”, the “TEAE Any SOC, any PT, %” value ([1]; 175 mg (n = 8)) was “(25.0) %” and the “TEAE Dyspnea, %” value ([1]; 175 mg (n = 8)) was “(12.5) %”. The “TEAE Fatigue, %” value ([1]; 175 mg (n = 8)) was “(12.5) %”, the “TEAE Infusion site discomfort, %” value ([1]; 175 mg (n = 8)) was “(12.5) %” and the “TEAE Urinary tract infection, %” value ([1]; 175 mg (n = 8)) was “(12.5) %”. The “TEAE Any SOC, any PT, %” value ([1]; 350 mg (n = 8)) was “(62.5) %”, the “TEAE Bursitis, %” value ([1]; 350 mg (n = 8)) was “(12.5) %” and the “TEAE Diarrhoea, %” value ([1]; 350 mg (n = 8)) was “(12.5) %”. For the same compound, the “TEAE Hypomagnesemia, %” value ([1]; 350 mg (n = 8)) was “(12.5) %”, the “TEAE Oral contusion, %” value ([1]; 350 mg (n = 8)) was “(12.5) %” and the “TEAE Proteinuria, %” value ([1]; 350 mg (n = 8)) was “(12.5) %”. The “TEAE Anemia, %” value ([1]; 400 mg Split Dose (n = 4)) was “(25.0) %”, the “TEAE Any SOC, any PT, %” value ([1]; 400 mg Split Dose (n = 4)) was “(75.0) %” and the “TEAE Neck pain, %” value ([1]; 400 mg Split Dose (n = 4)) was “(25.0) %”. For the same compound, the “TEAE Orthostatic hypotension, %” value ([1]; 400 mg Split Dose (n = 4)) was “(25.0) %”, the “TEAE Ventricular extrasystoles, %” value ([1]; 400 mg Split Dose (n = 4)) was “(25.0) %” and the “TEAE Any SOC, any PT, %” value ([1]; 550 mg Split Dose (n = 2)) was “(50.0) %”. For the same compound, the “TEAE Cardiac discomfort, %” value ([1]; 550 mg Split Dose (n = 2)) was 50.0%, the “TEAE Dyspnea, %” value ([1]; 550 mg Split Dose (n = 2)) was “(50.0) %” and the “TEAE Troponin increase, %” value ([1]; 550 mg Split Dose (n = 2)) was “(50.0) %”. For the same compound, the “maximum troponin I level (one subject)” value ([1]; 550 mg, 24 hours post-dose, 4×ULN) was 0.12 ng/mL, the “TEAE Anemia, %” value ([1]; Total Active (n = 12)) was “(8.3) %” and the “TEAE Any SOC, any PT, %” value ([1]; Total Active (n = 12)) was “(83.3) %”. For the same compound, the “TEAE Bursitis, %” value ([1]; Total Active (n = 12)) was “(8.3) %”, the “TEAE Cardiac discomfort, %” value ([1]; Total Active (n = 12)) was “(8.3) %” and the “TEAE Diarrhoea, %” value ([1]; Total Active (n = 12)) was “(8.3) %”. For the same compound, the “TEAE Diverticulitis, %” value ([1]; Total Active (n = 12)) was “(8.3)- %”, the “TEAE Dyspnea, %” value ([1]; Total Active (n = 12)) was “(8.3) %” and the “TEAE Fatigue, %” value ([1]; Total Active (n = 12)) was “(8.3) %”. The “TEAE Hypomagnesemia, %” value ([1]; Total Active (n = 12)) was “(8.3) %”, the “TEAE Infusion site discomfort, %” value ([1]; Total Active (n = 12)) was “(8.3) %” and the “TEAE Neck pain, %” value ([1]; Total Active (n = 12)) was “(8.3) %”. The “TEAE Oral contusion, %” value ([1]; Total Active (n = 12)) was “(8.3) %”, the “TEAE Orthostatic hypotension, %” value ([1]; Total Active (n = 12)) was “(8.3) %” and the “TEAE Proteinuria, %” value ([1]; Total Active (n = 12)) was “(8.3) %”. The “TEAE Troponin increase, %” value ([1]; Total Active (n = 12)) was “(8.3) %”, the “TEAE Urinary tract infection, %” value ([1]; Total Active (n = 12)) was “(8.3) %” and the “TEAE Ventricular extrasystoles, %” value ([1]; Total Active (n = 12)) was “(8.3) %”. The “QTcF (study ECGs)” value ([1]; all patients) was “no signal for QTcF increase”, the “Holter monitoring: atrial ectopy, atrial fibrillation, ventricular ectopy, NSVT runs” value ([1]; compared to placebo) was “no signal” and the “active-treatment periods with transient troponin increase (3/30)” value ([1]; doses from 175 to 550 mg) was 10%. The “subjects with transient troponin increase (3/12)” value ([1]; doses from 175 to 550 mg) was 25% and the safety and tolerability ([1]; single-ascending doses 175 to 550 mg) was “safe and generally well-tolerated”.
